Experimental data published in PubChem BioAssay AID624129 (Sanford-Burnham Center for Chemical Genomics, 2012).
Activity calls are given as the source filed them. No rule for the calls is given here.

Experiments:
Test in all cases: CXCR6 receptor antagonists, dose response, cell-based, beta-arrestin, DiscoveRx, APJ panel, uHTS hits (AID 624129)
[1] = target: Apelin receptor (Homo sapiens) (UniProt P35414); details: CXCR6 beta-arrestin (DiscoveRx) antagonist cell assay, APJ
[2] = target: Beta-galactosidase (Escherichia coli) (UniProt Q8VNN2); details: CXCR6 beta-arrestin (DiscoveRx) antagonist cell assay, b-galactosidase
[3] = target: C-C chemokine receptor type 6 (Homo sapiens) (UniProt P51684); details: CXCR6 beta-arrestin (DiscoveRx) antagonist cell assay
[4] = target: C-X-C chemokine receptor type 6 (Homo sapiens) (UniProt O00574); details: CXCR6 beta-arrestin (DiscoveRx) antagonist cell assay
[5] = dose range 1, mean IC50 across replicates
[6] = CCR6, dose range 1, mean IC50 across replicates
[7] = CXCR6, dose range 1, mean IC50 across replicates
[8] = CXCR6, run 1, dose range 2, at 80 µM (top of the series)

Beta-galactosidase (Escherichia coli), sequence (Q8VNN2 whole entry, looked up): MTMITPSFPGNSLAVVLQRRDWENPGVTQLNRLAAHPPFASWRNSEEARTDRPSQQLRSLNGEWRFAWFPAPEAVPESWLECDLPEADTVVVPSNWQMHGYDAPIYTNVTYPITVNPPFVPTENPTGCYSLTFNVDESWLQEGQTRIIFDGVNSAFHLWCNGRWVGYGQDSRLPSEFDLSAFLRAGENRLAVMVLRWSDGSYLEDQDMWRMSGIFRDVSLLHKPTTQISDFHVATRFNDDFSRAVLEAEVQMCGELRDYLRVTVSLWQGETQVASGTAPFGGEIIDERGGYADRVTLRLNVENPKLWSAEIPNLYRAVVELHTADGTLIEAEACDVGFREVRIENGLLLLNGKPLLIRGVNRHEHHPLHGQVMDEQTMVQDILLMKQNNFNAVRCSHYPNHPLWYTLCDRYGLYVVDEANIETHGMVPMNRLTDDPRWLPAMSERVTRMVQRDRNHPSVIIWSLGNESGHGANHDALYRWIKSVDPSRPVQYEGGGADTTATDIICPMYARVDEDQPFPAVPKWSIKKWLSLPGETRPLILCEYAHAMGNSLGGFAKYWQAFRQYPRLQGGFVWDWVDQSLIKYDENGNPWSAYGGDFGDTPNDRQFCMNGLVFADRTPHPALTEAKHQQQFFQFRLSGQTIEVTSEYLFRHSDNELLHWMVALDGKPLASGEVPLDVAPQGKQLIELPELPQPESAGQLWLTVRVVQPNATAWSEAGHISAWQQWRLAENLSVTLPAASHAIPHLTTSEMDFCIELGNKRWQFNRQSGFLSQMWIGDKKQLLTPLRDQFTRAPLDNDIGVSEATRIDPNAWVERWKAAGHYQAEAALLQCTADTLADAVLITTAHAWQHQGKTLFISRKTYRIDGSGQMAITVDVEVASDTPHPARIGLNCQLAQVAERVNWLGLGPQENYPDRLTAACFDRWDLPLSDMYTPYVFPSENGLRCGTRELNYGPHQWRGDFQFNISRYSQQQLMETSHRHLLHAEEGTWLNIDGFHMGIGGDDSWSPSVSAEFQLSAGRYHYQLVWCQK
C-X-C chemokine receptor type 6 (Homo sapiens), sequence (O00574 whole entry, looked up): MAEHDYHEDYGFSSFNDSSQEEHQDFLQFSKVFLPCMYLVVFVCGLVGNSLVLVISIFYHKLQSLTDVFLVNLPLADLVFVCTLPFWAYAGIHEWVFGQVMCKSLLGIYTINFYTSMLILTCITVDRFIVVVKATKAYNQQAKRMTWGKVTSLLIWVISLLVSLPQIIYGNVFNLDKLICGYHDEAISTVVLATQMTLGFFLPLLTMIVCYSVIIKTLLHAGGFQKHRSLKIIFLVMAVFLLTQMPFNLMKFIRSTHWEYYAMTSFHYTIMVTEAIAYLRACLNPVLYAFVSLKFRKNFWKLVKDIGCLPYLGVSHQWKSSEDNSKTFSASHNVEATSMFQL

IC50 ([1]; dose range 1) | IC50 [1, 5] | IC50 ([1]; run 2, dose range 1) | IC50 ([1]; run 3, dose range 1) | IC50 ([2]; dose range 1) | IC50 [2, 5] | IC50 ([3]; CCR6, dose range 1) | IC50 [3, 6] | IC50 ([3]; CCR6, run 2, dose range 1) | IC50 ([4]; CXCR6, dose range 1) | IC50 [4, 7] | IC50 ([4]; CXCR6, run 1, dose range 2) | IC50 ([4]; CXCR6, run 2, dose range 1) | IC50 ([4]; CXCR6, run 2, dose range 2) | inhibition [4, 8] | inhibition ([4]; CXCR6, run 1, dose range 2, at 40 µM (top of the series)) | Structure (SMILES)
3.71 µM | 4.54 µM | 5.03 µM | 4.88 µM | 3.65 µM | 3.65 µM | 2.72 µM | 2.47 µM | 2.23 µM | 3.59 µM | 2.93 µM | 2.45 µM | 2.76 µM | 2.93 µM | – | – | Cc1ccc(CN2C(=O)C(Cc3ccccc3)Nc3ncnc(N4CCN(c5ccccc5)CC4)c32)cc1 (stereo unspecified)
23.5 µM | 24.6 µM | 25.7 µM | > 80 µM | > 80 µM (inactive) | > 80 µM | 7.48 µM | 7.41 µM | 7.33 µM | 11.6 µM | 10.5 µM | 10.1 µM | 8.76 µM | 11.4 µM | – | – | O=S(=O)(/C=C/C=C/S(=O)(=O)c1ccccc1)c1ccccc1
16.7 µM | 17.8 µM | 19 µM | 17.5 µM | > 80 µM (inactive) | > 80 µM | 7.97 µM | 8.52 µM | 9.06 µM | 10.3 µM | 8.04 µM | – | 5.75 µM | – | 118% | – | Cc1ccc(S(=O)(=O)Nc2cccc3cccnc23)cc1
9.42 µM | 19.2 µM | 18.1 µM | 30 µM | 31.3 µM | 31.3 µM | 3.88 µM | 5.06 µM | 6.24 µM | 9.1 µM | 7.46 µM | 5.64 µM | 8.89 µM | 6.21 µM | – | – | Cc1ccc(NC(=S)N/N=C/c2ccc([N+](=O)[O-])s2)cc1
– | > 80 µM | > 80 µM | > 80 µM | > 80 µM (inactive) | > 80 µM | – | > 80 µM | > 80 µM | > 80 µM (inactive) | > 80 µM | – | > 80 µM | – | 4.14% | – | COc1ccc(Nc2ccc([N+](=O)[O-])c3nonc23)c(OC)c1
– | > 80 µM | > 80 µM | > 80 µM | > 80 µM (inactive) | > 80 µM | – | > 80 µM | > 80 µM | > 80 µM (inactive) | > 80 µM | – | > 80 µM | – | 11.1% | – | COC(=O)[C@@H]1[C@@H](C#N)C2(c3ccccc3-c3ccccc32)N(c2ccc(Cl)cc2)N1C#N
9.5 µM | 11.5 µM | 11.7 µM | 13.2 µM | > 80 µM (inactive) | > 80 µM | 8.25 µM | 8.81 µM | 9.37 µM | inactive | 14.3 µM | – | 13.5 µM | – | 118% | – | O=[N+]([O-])c1c(NCCCO)cc(Sc2nc3ccccc3s2)c2nonc12
13.8 µM | 23.7 µM | 21.8 µM | 35.4 µM | > 80 µM (inactive) | > 80 µM | 9.02 µM | 10.2 µM | 11.4 µM | inactive | 11.4 µM | 4.08 µM | 17.8 µM | 4.99 µM | – | – | CC(C)N=C1CCCC1C(=S)SSC(=S)C1CCCC1=NC(C)C (stereo unspecified)
3.41 µM | 14 µM | 4.94 µM | 33.7 µM | > 80 µM (inactive) | > 80 µM | 3.22 µM | 3.45 µM | 3.69 µM | 3.73 µM | 3.75 µM | 3.29 µM | 4.52 µM | 3.45 µM | – | – | C/C(=N\NC(=O)Cc1ccc(Cl)cc1)c1ccccn1
4.46 µM | 4.05 µM | 3.91 µM | 3.78 µM | > 80 µM (inactive) | > 80 µM | 2.76 µM | 2.87 µM | 2.98 µM | 3.11 µM | 3.27 µM | 3.64 µM | 2.99 µM | 3.35 µM | – | – | CCN(CC)CC(C)(C)C(=O)/C=C/c1ccc(/C=C/C(=O)C(C)(C)CN(CC)CC)cc1

Continued, compound first:

Structure (SMILES) | IC50 ([1]; dose range 1) | IC50 [1, 5] | IC50 ([1]; run 2, dose range 1) | IC50 ([1]; run 3, dose range 1) | IC50 ([2]; dose range 1) | IC50 [2, 5] | IC50 ([3]; CCR6, dose range 1) | IC50 [3, 6] | IC50 ([3]; CCR6, run 2, dose range 1) | IC50 ([4]; CXCR6, dose range 1) | IC50 [4, 7] | IC50 ([4]; CXCR6, run 1, dose range 2) | IC50 ([4]; CXCR6, run 2, dose range 1) | IC50 ([4]; CXCR6, run 2, dose range 2) | inhibition [4, 8] | inhibition ([4]; CXCR6, run 1, dose range 2, at 40 µM (top of the series))
CC(C)(C)c1ccc(CN2N=Nc3ccccc3S2(=O)=O)cc1 | 13.3 µM | 25.6 µM | 27.9 µM | 35.5 µM | > 80 µM (inactive) | > 80 µM | 11.2 µM | 17.2 µM | 23.1 µM | inactive | 16.3 µM | – | 20 µM | – | 142% | –
CCCC1CCC(=NNC(=S)NCCc2ccccc2)CC1 (stereo unspecified) | – | > 80 µM | > 80 µM | > 80 µM | > 80 µM (inactive) | > 80 µM | – | > 80 µM | > 80 µM | > 80 µM (inactive) | > 80 µM | – | > 80 µM | – | -19% | –
O=C(CSc1cccc2cccnc12)N/N=C/c1cccnc1 | 3.95 µM | 4.26 µM | 4.72 µM | 4.11 µM | > 80 µM (inactive) | > 80 µM | 4.18 µM | 5.05 µM | 5.92 µM | 6.91 µM | 4.34 µM | 3.34 µM | 4.25 µM | 2.87 µM | – | –
O=C1C(=C(c2ccccc2)N2CCOCC2)Cc2ccccc21 | 15.3 µM | 13.2 µM | 11.8 µM | 12.5 µM | > 80 µM (inactive) | > 80 µM | 8.91 µM | 8.89 µM | 8.87 µM | 8.74 µM | 9.51 µM | 9.93 µM | 10.3 µM | 9.08 µM | – | –
O=C(OCn1ncc(Cl)c(Cl)c1=O)c1cccc(C(F)(F)F)c1 | 21.6 µM | 31.7 µM | 32.5 µM | 40.9 µM | > 80 µM (inactive) | > 80 µM | 14 µM | 16.1 µM | 18.2 µM | inactive | 23.5 µM | – | 19 µM | – | 128% | –
C=CCn1nc([N+](=O)[O-])nc1Sc1cccc2cccnc12 | 75.1 µM | 49.3 µM | 36 µM | 36.8 µM | > 80 µM (inactive) | > 80 µM | 39 µM | 35.3 µM | 31.6 µM | inactive | 59.6 µM | – | > 80 µM | – | 82.2% | –
Oc1cccc2ccc(/C=C/c3cccs3)nc12 | 5.07 µM | 4.98 µM | > 80 µM | 4.89 µM | > 80 µM (inactive) | > 80 µM | 3.95 µM | 5.65 µM | 7.36 µM | – | 4.43 µM | 2.77 µM | 6.87 µM | 3.64 µM | – | –
CCS(=O)(=O)c1ncc(Cl)c(C(=O)Nc2ccc(S(=O)(=O)N(C)c3ccccc3)cc2)n1 | 5.02 µM | 5.55 µM | 5.84 µM | 5.8 µM | > 80 µM (inactive) | > 80 µM | 4.87 µM | 4.8 µM | 4.74 µM | 6.29 µM | 6.61 µM | 6.87 µM | 6.54 µM | 6.76 µM | – | –
COC(=O)c1ccc2c(c1)C(C)(C)C(/C=C/c1ccccc1O)=[N+]2C | 16.2 µM | 15.9 µM | 14.1 µM | 17.3 µM | 24.2 µM | 24.2 µM | 10.3 µM | 11.3 µM | 12.3 µM | inactive | 11.7 µM | 8.94 µM | 13.5 µM | 9.88 µM | – | –
Cc1ccc(C(C[N+](=O)[O-])Sc2ccc(N)cc2)cc1 (stereo unspecified) | 15.5 µM | 19.1 µM | 22.8 µM | > 80 µM | 31.8 µM | 31.8 µM | 14.3 µM | 18.8 µM | 23.3 µM | inactive | 21.8 µM | – | 24 µM | – | 157% | –
COc1ccc(OC)c(/C=C/c2ccc3cccc(O)c3n2)c1 | 6.47 µM | 8.4 µM | 10.3 µM | 8.46 µM | > 80 µM (inactive) | > 80 µM | 3.73 µM | 5.88 µM | 8.03 µM | 4.15 µM | 5.39 µM | 5.17 µM | 5.26 µM | 6.98 µM | – | –
Cc1cc(C)c2c(=O)n(CC(=O)Nc3cccc(Cl)c3C)sc2n1 | 1.69 µM | 3.11 µM | 5.55 µM | 2.1 µM | > 80 µM (inactive) | > 80 µM | 1.85 µM | 2.69 µM | 3.52 µM | 2.68 µM | 2.42 µM | – | 2.16 µM | – | – | 96.5%
